Data: patent US20040122045A1, “Timing curation of administration of adenosine A1/A2 agonist for cardioprotection” (Aventis Pharmaceuticals Inc., priority 2001, published 2004)
Read-outs that look alike come from different tables or passages of the source.

Assays:
in situ rabbit hearts = assay: Infarct size after 30 min regional ischemia/3 h reperfusion, in situ rabbit hearts; format: in vivo, New Zealand White rabbits; conditions: for Infarct size, percentage of the risk zone: AMP 579 30 μg/kg iv bolus + 3 μg/kg/min; for Protection against infarction: Adenosine 150, 300 or 400 μg/kg/min; for Infarct size (% of risk zone): starting 10 minutes before reperfusion
Experimental: Body temperature was maintained at 38-39° C. […] Ischemia was confirmed by appearance of cyanosis.
After 3 h of reperfusion, the rabbit was given an overdose of pentobarbital and the heart was quickly removed from the chest, mounted on a Langendorff apparatus, and perfused with saline to wash out blood. Then the coronary artery was reoccluded, and 5 ml of 0.1% zinc/cadmium sulfide particles (1-10 μm diameter, Duke Scientific Corp, Palo Alto, Calif.) were infused into the perfusate to demarcate the risk zone as the area of tissue without fluorescence. The heart was weighed, frozen, and cut into 2.5-mm-thick slices. The slices were incubated in 1% triphenyltetrazolium chloride (TTC) in sodium phosphate buffer at 37° C. for 20 min. The slices were immersed in 10% formalin to enhance the contrast between stained (viable) and unstained (necrotic) tissue and then squeezed between glass plates spaced exactly 2 mm apart. The myocardium at risk was identified by illuminating the slices with ultraviolet light. The infarcted and risk zone areas were traced on a clear acetate sheet and quantified with planimetry by an investigator blinded to the treatment. The areas were converted into volumes by multiplying the areas by slice thickness. Infarct size is expressed as a percentage of the risk zone.
The control group received no drug treatment.

A1 receptor subtype = biological target: T1, A1 receptor subtype (Homo sapiens, UniProt P30542); conditions: cited from earlier work
T1 sequence (P30542 1-326): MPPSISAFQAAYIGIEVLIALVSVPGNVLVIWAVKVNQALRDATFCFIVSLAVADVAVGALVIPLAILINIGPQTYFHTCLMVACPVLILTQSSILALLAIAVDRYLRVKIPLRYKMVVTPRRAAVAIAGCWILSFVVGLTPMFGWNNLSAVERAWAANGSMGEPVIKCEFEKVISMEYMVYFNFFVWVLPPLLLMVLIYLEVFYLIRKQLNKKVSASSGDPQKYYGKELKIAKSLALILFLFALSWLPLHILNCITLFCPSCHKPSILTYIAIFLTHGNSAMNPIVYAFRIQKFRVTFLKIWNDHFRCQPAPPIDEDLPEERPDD

A2a receptor subtype = A2a receptor subtype (Homo sapiens, UniProt P29274); conditions: cited from earlier work
chick cardiomyocytes = conditions: cited from earlier work
rabbit heart = conditions: cited from earlier work
rabbit hearts = conditions: cited from earlier work
[1] = Hemodynamics (heart rate, mean arterial pressure) during ischemia/reperfusion
[2] = AMP (30 min): 30 μg/kg iv bolus + 3 μg/kg/min, started 10 min before reperfusion, 30 min, Baseline
[3] = AMP (30 min): started 10 min before reperfusion, 30 min, Ischemia (end of 30 min)
[4] = AMP (30 min): started 10 min before reperfusion, 30 min, Rep 30′
[5] = AMP (30 min): started 10 min before reperfusion, 30 min, Rep 90′
[6] = AMP (30 min): started 10 min before reperfusion, 30 min, Rep 180′
[7] = AMP (40 min): 30 μg/kg iv bolus + 3 μg/kg/min, started 10 min before reperfusion, 40 min, Baseline
[8] = AMP (40 min): started 10 min before reperfusion, 40 min, Ischemia (end of 30 min)
[9] = AMP (40 min): started 10 min before reperfusion, 40 min, Rep 30′
[10] = AMP (40 min): started 10 min before reperfusion, 40 min, Rep 90′
[11] = AMP (40 min): started 10 min before reperfusion, 40 min, Rep 180′
[12] = AMP (70 min, late): 30 μg/kg iv bolus + 3 μg/kg/min, started 10 min after reperfusion, 70 min, Baseline
[13] = AMP (70 min, late): started 10 min after reperfusion, 70 min, Ischemia (end of 30 min)
[14] = AMP (70 min, late): started 10 min after reperfusion, 70 min, Rep 30′
[15] = AMP (70 min, late): started 10 min after reperfusion, 70 min, Rep 90′
[16] = AMP (70 min, late): started 10 min after reperfusion, 70 min, Rep 180′
[17] = AMP (70 min, onset): 30 μg/kg iv bolus + 3 μg/kg/min, started at onset of reperfusion, 70 min, Baseline
[18] = AMP (70 min, onset): started at onset of reperfusion, 70 min, Ischemia (end of 30 min)
[19] = AMP (70 min, onset): started at onset of reperfusion, 70 min, Rep 30′
[20] = AMP (70 min, onset): started at onset of reperfusion, 70 min, Rep 90′
[21] = AMP (70 min, onset): started at onset of reperfusion, 70 min, Rep 180′
[22] = Adenosine 150 μg/kg/min iv, 70 min starting 10 min before reperfusion
[23] = Adenosine 300 μg/kg/min iv, 70 min starting 10 min before reperfusion
[24] = Adenosine 400 μg/kg/min iv, 70 min starting 10 min before reperfusion

A2a receptor subtype, sequence (P29274 whole entry): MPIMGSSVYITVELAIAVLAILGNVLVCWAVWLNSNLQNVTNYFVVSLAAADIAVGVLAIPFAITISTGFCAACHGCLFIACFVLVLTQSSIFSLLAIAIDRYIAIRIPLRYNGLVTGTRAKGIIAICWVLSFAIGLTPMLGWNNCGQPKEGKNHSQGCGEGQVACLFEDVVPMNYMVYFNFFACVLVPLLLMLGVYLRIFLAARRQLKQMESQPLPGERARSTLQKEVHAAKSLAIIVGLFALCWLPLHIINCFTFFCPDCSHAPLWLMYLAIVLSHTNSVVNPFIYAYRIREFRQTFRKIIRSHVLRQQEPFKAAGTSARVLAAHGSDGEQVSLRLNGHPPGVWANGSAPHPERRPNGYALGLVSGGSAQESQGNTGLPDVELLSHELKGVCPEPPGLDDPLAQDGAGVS

## CCNC(=O)[C@H]1CC(n2cnc3c(N[C@H](CC)Cc4sccc4Cl)ccnc32)[C@H](O)[C@@H]1O (relative stereo) [AMP 579, [1S-[1α,2β,3β,4α(S*)]]-4-[7-[[3-chloro-2-thienyl)methyl]propyl]amino]-3H-imidazo[4,5-b]pyridin-3-yl]-N-ethyl-2,3-dihydroxycyclopentanecarboxamide]
In situ rabbit hearts; 70 min, started 10 min after reperfusion
  Infarct size, percentage of the risk zone: 27.6±7.2%
In situ rabbit hearts; 70 min, started at onset of reperfusion, p<0.05 vs. control
  Infarct size, percentage of the risk zone: 13.0±1.9%
In situ rabbit hearts; started 10 min before reperfusion, 30 min infusion
  Infarct size, percentage of the risk zone: 30.1±1.4%
In situ rabbit hearts; started 10 min before reperfusion, 40 min infusion
  Infarct size, percentage of the risk zone: 24.8±5.9%
In situ rabbit hearts; AMP (30 min): 30 μg/kg iv bolus + 3 μg/kg/min, started 10 min before reperfusion, 30 min
  Infarct size: 0.27 ± 0.05 cm^3
In situ rabbit hearts; AMP (40 min): 30 μg/kg iv bolus + 3 μg/kg/min, started 10 min before reperfusion, 40 min
  Infarct size: 0.27 ± 0.07 cm^3
In situ rabbit hearts; AMP (70 min, late): 30 μg/kg iv bolus + 3 μg/kg/min, started 10 min after reperfusion, 70 min
  Infarct size: 0.28 ± 0.07 cm^3
In situ rabbit hearts; AMP (70 min, onset): 30 μg/kg iv bolus + 3 μg/kg/min, started at onset of reperfusion, 70 min, * p<0.05 vs. control
  Infarct size: 0.14 ± 0.03* cm^3
A1 receptor subtype
  Ki: 5 nM
A2a receptor subtype
  Ki: 56 nM
Chick cardiomyocytes; 1 μM
  Burst of free radicals at reperfusion: virtually eliminated it
Rabbit heart
  Onset of contracture that accompanies reperfusion: greatly attenuates the onset of contracture
Rabbit hearts; 3 μg/kg/min
  Protection against infarction (dose required): protective
Rabbit hearts; 70-min infusion starting 10 min prior to reperfusion, previous study (Xu et al.)
  Infarct size, percentage of the risk zone: 12.3±1.0%
[1]; [2]
  HR: 271 ± 3 beats/min
  MAP: 91.8 ± 2.8 mmHg
[1]; [3]
  HR: 247 ± 5 beats/min
  MAP: 73.7 ± 3.9 mmHg
[1]; [4]
  HR: 241 ± 7 beats/min
  MAP: 74.8 ± 5.1 mmHg
[1]; [5]
  HR: 256 ± 11 beats/min
  MAP: 77.7 ± 5.7 mmHg
[1]; [6]
  HR: 265 ± 6 beats/min
  MAP: 77.9 ± 5.2 mmHg
[1]; [7]
  HR: 271 ± 11 beats/min
  MAP: 99.3 ± 2.4 mmHg
[1]; [8]
  HR: 268 ± 7 beats/min
  MAP: 76.8 ± 6.6 mmHg
[1]; [9]
  HR: 250 ± 14 beats/min
  MAP: 70.4 ± 8.1 mmHg
[1]; [10]
  HR: 268 ± 13 beats/min
  MAP: 83.5 ± 5.0 mmHg
[1]; [11]
  HR: 268 ± 10 beats/min
  MAP: 81.8 ± 4.5 mmHg
[1]; [12]
  HR: 285 ± 3 beats/min
  MAP: 96.9 ± 2.9 mmHg
[1]; [13]
  HR: 281 ± 1 beats/min
  MAP: 84.6 ± 4.5 mmHg
[1]; [14]
  HR: 243 ± 8 beats/min
  MAP: 57.4 ± 5.6 mmHg
[1]; [15]
  HR: 240 ± 6 beats/min
  MAP: 69.0 ± 4.9 mmHg
[1]; [16]
  HR: 259 ± 10 beats/min
  MAP: 68.1 ± 3.6 mmHg
[1]; [17]
  HR: 262 ± 6 beats/min
  MAP: 98.6 ± 3.2 mmHg
[1]; [18]
  HR: 270 ± 9 beats/min
  MAP: 89.0 ± 3.2 mmHg
[1]; [19]
  HR: 233 ± 9 beats/min
  MAP: 55.6 ± 3.9 mmHg
[1]; [20]
  HR: 235 ± 16 beats/min
  MAP: 70.8 ± 4.5 mmHg
[1]; [21]
  HR: 264 ± 10 beats/min
  MAP: 79.6 ± 3.9 mmHg
[1]; infusion commenced before the onset of reperfusion (AMP 30 min and AMP 40 min groups)
  Hypotensive effect: additional mild hypotensive effect

## Nc1ncnc2c1ncn2[C@@H]1O[C@H](CO)[C@@H](O)[C@H]1O [Adenosine]
In situ rabbit hearts; [22]
  % infarction of the risk zone: 32.6 ± 5.8%
  Infarct size: 0.36 ± 0.09 cm^3
In situ rabbit hearts; [23]
  % infarction of the risk zone: 34.4 ± 9.5%
  Infarct size: 0.36 ± 0.11 cm^3
In situ rabbit hearts; [24]
  % infarction of the risk zone: 29.2 ± 8.0%
  Infarct size: 0.30 ± 0.08 cm^3
In situ rabbit hearts; 70 min starting 10 min before reperfusion
  Protection against infarction: No protection was seen
In situ rabbit hearts; 70 min starting 10 min before reperfusion, listed as adenosine
  Protection against infarction: none of the doses was protective
In situ rabbit hearts; Infusion rate 300 ug/kg/min
  Infarct size (% of risk zone): 34.4 ± 9.5%
In situ rabbit hearts; Infusion rate 400 ug/kg/min
  Infarct size (% of risk zone): 29.2 ± 8.0%
Chick cardiomyocytes; 100 μM (a receptor saturating concentration)
  Burst of free radicals at reperfusion: failed to block the burst of free radicals at reperfusion
